Measured values as given in patent US12521440B2, “Degradation of bruton's tyrosine kinase (BTK) by conjugation of BTK inhibitors with E3 ligase ligand and methods of use” (BeOne Medicines I GmbH, priority 2021, dated 2026).

Assays:
BTK = target: T1, BTK (Homo sapiens, UniProt Q06187); assay: BTK degradation in TMD-8 cells (HTRF assay); type: cell-based; settings: 6 h treatment, HTRF BTK degradation IC50 (DC50)
T1 construct: endogenous in cells; host or cells: TMD-8 cells
Method: TMD-8 cells were treated with compounds diluted in 0.2% DMSO, dilution was done according to the following protocol: (1) making 500×stock solution in DMSO from 1 mM by 6-fold dilution, total 8 doses were included; (2) making 2×solution in cell culture medium by transferring 0.5 μl 500×stock solution into 125 μl medium; (3) adding 15 μl of 2×solution to cells for incubation of 6 h.
After 6 h treatment, 10 μl 4×lysis buffer was added to each well; the plate was sealed and incubated for 30 min at room temperature on a plate shaker; Once the cells was lysed, 16 μL of cell lysate were transferred to a PE 384-well HTRF detection plate; 4 μL of pre-mixed HTRF antibodies were added to each well; the plate was covered with a plate sealer, and then spinned at 1000 rpm for 1 min, then incubated overnight at room temperature; the results were read on BMG PheraStar with HTRF protocol (337 nm-665 nm-620 nm).
(§1) The IC50 (DC50) value of a compound can be obtained by fitting the following equation Y=Bottom+(TOP−Bottom)/(1+((IC50/X)^hillslope)) wherein, X and Y are known values, and IC50, Hillslope, Top and Bottom are the parameters obtained by fitting with software. Y is the inhibition percentage (calculated from the equation), X is the concentration of the compound; IC50 is the concentration of the compound when the 50% inhibition is reached. The smaller the IC50 value is, the stronger the inhibitory ability of the compound is. Vice versa, the higher the IC50 value is, the weaker the ability the inhibitory ability of the compound is; Hillslope represents the slope of the fitted curve, generally around 1*; Bottom represents the minimum value of the curve obtained by data fitting, which is generally 0%±20%; Top represents the maximum value of the curve obtained by data fitting, which is generally 100%±20%. The experimental data were fitted by calculating and analyzing with Dotmatics data analysis software. HEK-293 Cell Treatment

HEK-293 cells = assay: HEK-293 cytotoxicity detection (CellTiter-Glo); type: cell-based; settings: Homo sapiens, 72 h incubation, read-out: HEK293
Excerpt: as §1
HEK-293 cells were treated with compounds diluted in 0.2% DMSO, dilution was done according to the following protocol: (1) making 500×stock solution in DMSO from 5 mM by 4-fold dilution, total 8 doses were included; (2) making 2×solution in cell culture medium by transferring 0.5 ul 500×stock solution into 125 ul medium; (3) adding 50 ul of 2×solution to cells for incubation of 72 h.
25 μl of the CellTiter-Glo® Reagent [(Promega)—Cat No. G7572] was added to each well in the 96-well plate. The contents were mixed for 2 minutes on an orbital shaker to induce cell lysis. The plate was then allowed to incubate at room temperature for 10 minutes to stabilize luminescent signal. Luminescence was recorded on BMG PheraStar with luminescence protocol.
as §1, with “IC50” for “IC50 (DC50)”, “Wherein,” for “wherein,”, “software.” for “software. HEK-293 Cell Treatment”

T1 sequence (Q06187 whole entry): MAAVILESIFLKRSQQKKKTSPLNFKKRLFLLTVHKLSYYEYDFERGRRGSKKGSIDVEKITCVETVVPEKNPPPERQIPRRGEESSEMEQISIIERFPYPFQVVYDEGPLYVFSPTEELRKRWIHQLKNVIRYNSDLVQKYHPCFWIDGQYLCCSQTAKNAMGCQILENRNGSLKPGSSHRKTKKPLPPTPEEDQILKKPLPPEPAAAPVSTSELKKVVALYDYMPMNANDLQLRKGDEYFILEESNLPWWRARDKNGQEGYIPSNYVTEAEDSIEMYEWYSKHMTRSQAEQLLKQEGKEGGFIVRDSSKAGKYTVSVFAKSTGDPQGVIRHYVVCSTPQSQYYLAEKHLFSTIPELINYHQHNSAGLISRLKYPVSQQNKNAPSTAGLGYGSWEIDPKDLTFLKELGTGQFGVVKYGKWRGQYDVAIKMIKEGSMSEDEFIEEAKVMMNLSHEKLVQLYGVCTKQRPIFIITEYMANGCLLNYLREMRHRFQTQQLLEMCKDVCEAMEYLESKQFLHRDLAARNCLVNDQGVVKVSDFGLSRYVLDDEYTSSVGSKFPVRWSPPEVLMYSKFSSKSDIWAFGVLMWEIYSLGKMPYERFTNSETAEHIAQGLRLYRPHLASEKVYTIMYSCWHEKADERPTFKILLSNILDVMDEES

SMILES	DC50 (BTK) [nM]	IC50 (HEK-293 cells) [nM]
Cc1cc(-c2cc(Nc3ccc(N4CCN(C(=O)C5CN(c6cc(F)c(C7CCC(=O)NC7=O)c(F)c6)C5)CC4)cn3)ncn2)ccc1[C@@H](C)NC(=O)c1nc(C(C)(C)C)no1 (stereo partly drawn) [Example 27, 3-(tert-butyl)-N-((1R)-1-(4-(6-((5-(4-(1-(4-(2,6-dioxopiperidin-3-yl)-3,5-difluorophenyl)azetidine-3-carbonyl)piperazin-1-yl)pyridin-2-yl)amino)pyrimidin-4-yl)-2-methylphenyl)ethyl)-1,2,4-oxadiazole-5-carboxamide]	3.57	> 10000
Cc1cc(-c2cc(Nc3ccc(N4CCN(C(=O)C5CCN(c6ccc(N7CCC(=O)NC7=O)cc6)CC5)CC4)cn3)ncn2)ccc1[C@@H](C)NC(=O)c1nc(C(C)(C)C)no1 [Example 28, (R)-3-(tert-butyl)-N-(1-(4-(6-((5-(4-(1-(4-(2,4-dioxotetrahydropyrimidin-1(2H)-yl)phenyl)piperidine-4-carbonyl)piperazin-1-yl)pyridin-2-yl)amino)pyrimidin-4-yl)-2-methylphenyl)ethyl)-1,2,4-oxadiazole-5-carboxamide]	1.66	> 10000
Cc1cc(-c2cc(Nc3ccc(N4CCN(C(=O)C5CCN(c6ccc(N7CCC(=O)NC7=O)cc6)C5)CC4)cn3)ncn2)ccc1[C@@H](C)NC(=O)c1nc(C(C)(C)C)no1 (stereo partly drawn) [Example 29, 3-(tert-butyl)-N-((1R)-1-(4-(6-((5-(4-(1-(4-(2,4-dioxotetrahydropyrimidin-1(2H)-yl)phenyl)pyrrolidine-3-carbonyl)piperazin-1-yl)pyridin-2-yl)amino)pyrimidin-4-yl)-2-methylphenyl)ethyl)-1,2,4-oxadiazole-5-carboxamide]	0.836	> 10000
Cc1cc(-c2cc(Nc3ccc(N4CC5(CN(CC6CCN(c7ccc(N8CCC(=O)NC8=O)cc7)CC6)C5)C4)cn3)ncn2)ccc1[C@@H](C)NC(=O)c1nc(C(C)(C)C)no1 [Example 30, (R)-3-(tert-butyl)-N-(1-(4-(6-((5-(6-((1-(4-(2,4-dioxotetrahydropyrimidin-1(2H)-yl)phenyl)piperidin-4-yl)methyl)-2,6-diazaspiro [3.3]heptan-2-yl)pyridin-2-yl)amino)pyrimidin-4-yl)-2-methylphenyl)ethyl)-1,2,4-oxadiazole-5-carboxamide]	0.539	1000
Cc1cc(-c2cc(Nc3ccc(N4CCC5(CCN(CC6CCN(c7ccc(N8CCC(=O)NC8=O)cc7)CC6)C5)CC4)cn3)ncn2)ccc1[C@@H](C)NC(=O)c1nc(C(C)(C)C)no1 [Example 31, (R)-3-(tert-butyl)-N-(1-(4-(6-((5-(2-((1-(4-(2,4-dioxotetrahydropyrimidin-1(2H)-yl)phenyl)piperidin-4-yl)methyl)-2,8-diazaspiro[4.5]decan-8-yl)pyridin-2-yl)amino)pyrimidin-4-yl)-2-methylphenyl)ethyl)-1,2,4-oxadiazole-5-carboxamide]	1.99	1870
Cc1cc(-c2cc(Nc3ccc(N4CCC5(CC4)CN(CC4CCN(c6ccc(N7CCC(=O)NC7=O)cc6)CC4)C5)cn3)ncn2)ccc1[C@@H](C)NC(=O)c1nc(C(C)(C)C)no1 [Example 32, (R)-3-(tert-butyl)-N-(1-(4-(6-((5-(2-((1-(4-(2,4-dioxotetrahydropyrimidin-1(2H)-yl)phenyl)piperidin-4-yl)methyl)-2,7-diazaspiro [3.5]nonan-7-yl)pyridin-2-yl)amino)pyrimidin-4-yl)-2-methylphenyl)ethyl)-1,2,4-oxadiazole-5-carboxamide]	1.73	1910
Cc1cc(-c2cc(Nc3ccc(N4CC5(CCN(CC6CCN(c7ccc(N8CCC(=O)NC8=O)cc7)CC6)CC5)C4)cn3)ncn2)ccc1[C@@H](C)NC(=O)c1nc(C(C)(C)C)no1 [Example 33, (R)-3-(tert-butyl)-N-(1-(4-(6-((5-(7-((1-(4-(2,4-dioxotetrahydropyrimidin-1(2H)-yl)phenyl)piperidin-4-yl)methyl)-2,7-diazaspiro [3.5]nonan-2-yl)pyridin-2-yl)amino)pyrimidin-4-yl)-2-methylphenyl)ethyl)-1,2,4-oxadiazole-5-carboxamide]	1.3	> 10000
